# Measured values from BindingDB's records for doi:10.1016/j.bmc.2021.116291 (Fudan University School of Pharmacy, 2021).
# Molecular target: Glucagon-like peptide 1 receptor (Homo sapiens, UniProt P43220)
# Test: Binding affinity to GLP1R (unknown origin) assessed as dissociation rate constant by surface plasmon resonance analysis
# Sequence of Glucagon-like peptide 1 receptor (P43220 whole entry): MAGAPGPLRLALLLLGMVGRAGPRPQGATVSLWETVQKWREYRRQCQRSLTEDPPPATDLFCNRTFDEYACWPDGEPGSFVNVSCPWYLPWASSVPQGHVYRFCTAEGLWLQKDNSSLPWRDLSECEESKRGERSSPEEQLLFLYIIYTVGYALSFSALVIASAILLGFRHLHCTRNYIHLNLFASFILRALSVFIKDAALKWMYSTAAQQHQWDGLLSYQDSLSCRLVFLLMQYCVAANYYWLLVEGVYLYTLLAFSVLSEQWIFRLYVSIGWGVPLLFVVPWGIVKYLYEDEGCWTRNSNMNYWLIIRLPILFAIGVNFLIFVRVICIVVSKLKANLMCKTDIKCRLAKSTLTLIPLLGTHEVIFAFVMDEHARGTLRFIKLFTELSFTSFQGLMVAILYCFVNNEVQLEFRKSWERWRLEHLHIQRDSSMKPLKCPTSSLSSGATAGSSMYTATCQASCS
row,Structure (SMILES),koff [s⁻¹]
1,CCCCCCCCCCCC(=O)N[C@@H](CCC(=O)NCCCC[C@H](NC(=O)CC[C@H](NC(=O)CCCCCCCCCCC)C(=O)O)C(=O)NCCOCCOCC(=O)NCCOCCOCC(=O)NCCOCCOCC(=O)O)C(=O)O,0.0237
2,CCCCCCCCCCCC(=O)N[C@@H](CCC(=O)NCCCC[C@H](NC(=O)CC[C@H](NC(=O)CCCCCCCCCCC)C(=O)O)C(=O)NCCOCCOCC(=O)O)C(=O)O,0.0065
3,CCCCCCCCCCCC(=O)N[C@@H](CCC(=O)NCCCC[C@H](NC(=O)CC[C@H](NC(=O)CCCCCCCCCCC)C(=O)O)C(=O)NCCOCCOCC(=O)NCCOCCOCC(=O)O)C(=O)O,0.00857
